# Results as given in publication PMC6802645, “6′-Sialylgalactose inhibits vascular endothelial growth factor receptor 2-mediated angiogenesis” (Experimental & Molecular Medicine, 2019).
# Molecular target: T1, VEGFR-2 (vascular endothelial growth factor receptor 2) (Homo sapiens, UniProt P35968)
# T1 construct: gene KDR; second and third IgG-like domains of VEGFR-2 (VEGFR-2 IG3)
# Experiment: SPR (Biacore T100, VEGFR-2 IG3 immobilized by amine coupling on CM5)
# Assay type: binding
# T1 sequence (P35968 141-320 limits assumed): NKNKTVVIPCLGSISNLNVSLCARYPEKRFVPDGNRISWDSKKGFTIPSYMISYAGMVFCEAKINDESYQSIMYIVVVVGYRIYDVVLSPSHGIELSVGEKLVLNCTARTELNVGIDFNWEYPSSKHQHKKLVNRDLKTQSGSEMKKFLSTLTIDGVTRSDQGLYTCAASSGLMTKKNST
row,Kd [nM],Structure (SMILES)
1,2.35,"CC(=O)N[C@H]1[C@H]([C@H](O)[C@H](O)CO)OC(OC[C@H]2OC(O)[C@H](O)[C@@H](O)[C@H]2O)(C(=O)O)C[C@@H]1O (some centres unmarked) [6SG, 6′-sialylgalactose]"
2,3.05,"CC(=O)N[C@H]1[C@H]([C@H](O)[C@H](O)CO)OC(OC[C@H]2O[C@@H](O[C@H]3[C@H](O)[C@@H](O)C(O)O[C@@H]3CO)[C@H](O)[C@@H](O)[C@H]2O)(C(=O)O)C[C@@H]1O (some centres unmarked) [6SL, 6′-sialyllactose]"
